pKi: −log10 of the molar value.
These molecules were tested against T1, ATR kinase (full-length ATR) (Homo sapiens, UniProt Q13535) (assay: ATR Inhibition Assay (radioactive-phosphate incorporation)). Conditions: Ki(app); 5 nM full-length ATR, 10 μM ATP, 800 μM target peptide, 25° C.; class symbols; read-out: ATR Inhibition Ki.
T1 construct: Assays were carried out at 25° C. in the presence of 5 nM full-length ATR
Format: biochemical
Experimental: Compounds were screened for their ability to inhibit ATR kinase using a radioactive-phosphate incorporation assay. Assays were carried out in a mixture of 50 mM Tris/HCl (pH 7.5), 10 mM MgCl2 and 1 mM DTT. Final substrate concentrations were 10 μM [y-33P]ATP (3mCi 33P ATP/mmol ATP, Perkin Elmer) and 800 μM target peptide ([…]).
Assays were carried out at 25° C. in the presence of 5 nM full-length ATR. An assay stock buffer solution was prepared containing all of the reagents listed above, with the exception of ATP and the test compound of interest. […] The plate was pre-incubated for 10 minutes at 25° C. and the reaction initiated by addition of 15 μL [y-33P]ATP (final concentration 10 μM).
The reaction was stopped after […] by the addition of 30 μL 0.1M phosphoric acid containing 2 mM ATP. A multiscreen phosphocellulose filter 96-well plate (Millipore, Cat no. MAPHN0B50) was pretreated with 100 μL 0.2M phosphoric acid prior to the addition of 45 μL of the stopped assay mixture. The plate was washed with 5×200 μL 0.2M phosphoric acid.
After removing mean background values for all of the data points, Ki(app) data were calculated from non-linear regression analysis of the initial rate data using the Prism software package (GraphPad Prism version 3.0cx for Macintosh, GraphPad Software, San Diego Calif., USA).

T1 sequence (Q13535 whole entry): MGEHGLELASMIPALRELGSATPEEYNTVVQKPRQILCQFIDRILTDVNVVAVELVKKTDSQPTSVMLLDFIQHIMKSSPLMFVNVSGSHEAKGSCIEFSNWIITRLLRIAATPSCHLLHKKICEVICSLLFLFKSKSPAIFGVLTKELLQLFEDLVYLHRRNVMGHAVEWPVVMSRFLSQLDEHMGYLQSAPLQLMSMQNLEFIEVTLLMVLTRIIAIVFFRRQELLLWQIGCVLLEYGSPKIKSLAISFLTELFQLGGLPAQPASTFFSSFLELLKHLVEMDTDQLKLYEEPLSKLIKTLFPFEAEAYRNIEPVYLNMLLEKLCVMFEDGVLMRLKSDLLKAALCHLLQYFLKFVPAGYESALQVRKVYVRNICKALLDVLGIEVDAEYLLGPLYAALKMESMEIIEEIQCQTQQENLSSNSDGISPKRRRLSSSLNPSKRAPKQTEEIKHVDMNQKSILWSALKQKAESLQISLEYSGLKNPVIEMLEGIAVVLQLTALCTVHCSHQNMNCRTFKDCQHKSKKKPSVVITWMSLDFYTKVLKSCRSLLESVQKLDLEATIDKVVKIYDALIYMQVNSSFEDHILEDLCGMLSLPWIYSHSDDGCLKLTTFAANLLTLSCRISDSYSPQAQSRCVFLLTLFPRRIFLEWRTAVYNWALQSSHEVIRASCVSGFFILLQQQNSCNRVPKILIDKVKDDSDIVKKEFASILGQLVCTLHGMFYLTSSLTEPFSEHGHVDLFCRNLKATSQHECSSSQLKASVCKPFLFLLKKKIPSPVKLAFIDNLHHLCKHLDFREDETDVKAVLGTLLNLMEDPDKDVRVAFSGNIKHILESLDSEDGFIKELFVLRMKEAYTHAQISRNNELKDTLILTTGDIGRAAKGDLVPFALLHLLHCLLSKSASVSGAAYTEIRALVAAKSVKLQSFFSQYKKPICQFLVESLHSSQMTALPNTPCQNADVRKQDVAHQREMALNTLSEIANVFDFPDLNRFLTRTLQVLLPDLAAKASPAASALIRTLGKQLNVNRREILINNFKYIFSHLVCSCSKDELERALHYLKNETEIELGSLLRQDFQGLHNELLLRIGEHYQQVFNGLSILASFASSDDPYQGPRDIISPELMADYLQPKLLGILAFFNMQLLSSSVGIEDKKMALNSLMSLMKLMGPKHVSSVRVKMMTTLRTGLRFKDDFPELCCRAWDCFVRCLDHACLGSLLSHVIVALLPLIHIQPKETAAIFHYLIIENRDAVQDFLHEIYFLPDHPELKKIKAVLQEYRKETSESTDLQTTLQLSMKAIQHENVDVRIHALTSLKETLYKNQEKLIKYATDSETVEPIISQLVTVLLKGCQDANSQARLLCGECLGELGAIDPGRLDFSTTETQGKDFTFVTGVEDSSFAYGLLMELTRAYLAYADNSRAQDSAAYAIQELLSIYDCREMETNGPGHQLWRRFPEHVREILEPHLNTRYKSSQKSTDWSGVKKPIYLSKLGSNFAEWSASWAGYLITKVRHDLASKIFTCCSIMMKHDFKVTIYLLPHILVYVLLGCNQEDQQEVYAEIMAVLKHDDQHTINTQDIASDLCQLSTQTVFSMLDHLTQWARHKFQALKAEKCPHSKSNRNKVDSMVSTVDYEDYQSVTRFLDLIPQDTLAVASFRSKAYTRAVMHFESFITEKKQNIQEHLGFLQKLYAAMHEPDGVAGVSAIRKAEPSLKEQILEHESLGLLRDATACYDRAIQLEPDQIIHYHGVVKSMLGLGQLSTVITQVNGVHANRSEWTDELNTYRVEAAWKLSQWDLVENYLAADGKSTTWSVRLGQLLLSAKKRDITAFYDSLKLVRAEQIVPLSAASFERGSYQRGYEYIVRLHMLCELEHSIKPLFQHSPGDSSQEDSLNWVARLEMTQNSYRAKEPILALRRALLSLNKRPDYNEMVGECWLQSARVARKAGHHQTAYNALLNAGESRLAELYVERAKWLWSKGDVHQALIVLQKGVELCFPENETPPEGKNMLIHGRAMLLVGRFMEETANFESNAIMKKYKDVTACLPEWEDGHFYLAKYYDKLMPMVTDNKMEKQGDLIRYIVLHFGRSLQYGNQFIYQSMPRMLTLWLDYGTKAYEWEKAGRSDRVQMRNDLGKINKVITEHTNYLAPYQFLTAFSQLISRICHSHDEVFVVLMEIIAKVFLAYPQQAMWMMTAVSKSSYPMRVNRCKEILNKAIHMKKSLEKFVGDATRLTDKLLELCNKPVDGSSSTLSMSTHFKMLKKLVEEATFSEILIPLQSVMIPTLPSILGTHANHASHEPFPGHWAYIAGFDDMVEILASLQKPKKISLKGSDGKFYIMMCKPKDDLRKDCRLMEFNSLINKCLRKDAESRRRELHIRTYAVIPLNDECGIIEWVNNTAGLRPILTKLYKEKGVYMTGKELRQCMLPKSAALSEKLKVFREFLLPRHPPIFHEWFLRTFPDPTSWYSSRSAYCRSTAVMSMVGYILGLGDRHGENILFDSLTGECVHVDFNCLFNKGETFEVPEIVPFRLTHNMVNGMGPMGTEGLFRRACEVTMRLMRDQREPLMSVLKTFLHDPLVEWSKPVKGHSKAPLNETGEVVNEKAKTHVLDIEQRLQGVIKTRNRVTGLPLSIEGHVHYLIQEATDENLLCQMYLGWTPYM

SMILES	pKi
CC(O)c1cccc(NC(=O)c2c[nH]c3ncc(-c4ccc(S(=O)(=O)C(C)C)cc4)nc23)c1 (stereo not shown) [Compound I-34, N-[3-(1-hydroxyethyl)phenyl]-2-(4-isopropylsulfonylphenyl)-5H-pyrrolo[2,3-b]pyrazine-7-carboxamide]	6.30 to 7.00
CC(C)S(=O)(=O)c1ccc(-c2cnc3[nH]cc(C(=O)N[C@@H](C)c4ccccc4)c3n2)cc1 [Compound I-35, 2-(4-isopropylsulfonylphenyl)-N-[(1S)-1-phenylethyl]-5H-pyrrolo[2,3-b]pyrazine-7-carboxamide]	5.30 to 6.30
CC(C)S(=O)(=O)c1ccc(-c2cnc3[nH]cc(C(=O)Nc4cccc(C(N)=O)c4)c3n2)cc1 [Compound I-36, N-(3-carbamoylphenyl)-2-(4-isopropylsulfonylphenyl)-5H-pyrrolo[2,3-b]pyrazine-7-carboxamide]	> 7.00
CC(C)S(=O)(=O)c1ccc(-c2cnc3[nH]cc(C(=O)NC[C@H](O)c4ccccc4)c3n2)cc1 [Compound I-37, N-[(2R)-2-hydroxy-2-phenyl-ethyl]-2-(4-isopropylsulfonylphenyl)-5H-pyrrolo[2,3-b]pyrazine-7-carboxamide]	> 7.00
CC(C)S(=O)(=O)c1ccc(-c2cnc3[nH]cc(C(=O)NCc4ccc(N5CCOCC5)cc4)c3n2)cc1 [Compound I-38, 2-(4-isopropylsulfonylphenyl)-N-[(4-morpholinophenyl)methyl]-5H-pyrrolo[2,3-b]pyrazine-7-carboxamide]	5.30 to 6.30
CC(C)S(=O)(=O)c1ccc(-c2cnc3[nH]cc(C(=O)N4CCCC4CO)c3n2)cc1 (stereo not shown) [Compound I-40, [2-(hydroxymethyl)pyrrolidin-1-yl]-[2-(4-isopropylsulfonylphenyl)-5H-pyrrolo[2,3-b]pyrazin-7-yl]methanone]	5.30 to 6.30
CC(C)S(=O)(=O)c1ccc(-c2cnc3[nH]cc(C(=O)Nc4ccccc4C#N)c3n2)cc1 [Compound I-41, N-(2-cyanophenyl)-2-(4-isopropylsulfonylphenyl)-5H-pyrrolo[2,3-b]pyrazine-7-carboxamide]	> 7.00
CC(C)S(=O)(=O)c1ccc(-c2cnc3[nH]cc(C(=O)NC(CO)c4ccccc4)c3n2)cc1 (stereo not shown) [Compound I-42, N-(2-hydroxy-1-phenyl-ethyl)-2-(4-isopropylsulfonylphenyl)-5H-pyrrolo[2,3-b]pyrazine-7-carboxamide]	> 7.00
CC(C)S(=O)(=O)c1ccc(-c2cnc3[nH]cc(C(=O)Nc4noc5ccccc45)c3n2)cc1 [Compound I-43, N-(1,2-benzoxazol-3-yl)-2-(4-isopropylsulfonylphenyl)-5H-pyrrolo[2,3-b]pyrazine-7-carboxamide]	> 7.00
CC(C)S(=O)(=O)c1ccc(-c2cnc3[nH]cc(C(=O)NC4(CO)CCCC4)c3n2)cc1 [Compound I-44, N-[1-(hydroxymethyl)cyclopentyl]-2-(4-isopropylsulfonylphenyl)-5H-pyrrolo[2,3-b]pyrazine-7-carboxamide]	6.30 to 7.00
CC(C)S(=O)(=O)c1ccc(-c2cnc3[nH]cc(C(=O)N[C@H](C)c4ccccc4)c3n2)cc1 [Compound I-45, 2-(4-isopropylsulfonylphenyl)-N-[(1R)-1-phenylethyl]-5H-pyrrolo[2,3-b]pyrazine-7-carboxamide]	> 7.00
CC(C)S(=O)(=O)c1ccc(-c2cnc3[nH]cc(C(=O)NCc4ccccc4Cl)c3n2)cc1 [Compound I-48, N-[(2-chlorophenyl)methyl]-2-(4-isopropylsulfonylphenyl)-5H-pyrrolo[2,3-b]pyrazine-7-carboxamide]	> 7.00
CC(C)S(=O)(=O)c1ccc(-c2cnc3[nH]cc(C(=O)NCc4ccc(N(C)C)cc4)c3n2)cc1 [Compound I-49, N-[(4-dimethylaminophenyl)methyl]-2-(4-isopropylsulfonylphenyl)-5H-pyrrolo[2,3-b]pyrazine-7-carboxamide]	> 7.00
CC(C)S(=O)(=O)c1ccc(-c2cnc3[nH]cc(C(=O)Nc4ccccc4CCO)c3n2)cc1 [Compound I-50, N-[2-(2-hydroxyethyl)phenyl]-2-(4-isopropylsulfonylphenyl)-5H-pyrrolo[2,3-b]pyrazine-7-carboxamide]	6.30 to 7.00
CC(C)S(=O)(=O)c1ccc(-c2cnc3[nH]cc(C(=O)N[C@@H](CCO)c4ccccc4)c3n2)cc1 [Compound I-51, N-[(1S)-3-hydroxy-1-phenyl-propyl]-2-(4-isopropylsulfonylphenyl)-5H-pyrrolo[2,3-b]pyrazine-7-carboxamide]	5.30 to 6.30
CC(C)S(=O)(=O)c1ccc(-c2cnc3[nH]cc(C(=O)NCc4ccccn4)c3n2)cc1 [Compound I-52, 2-(4-isopropylsulfonylphenyl)-N-(2-pyridylmethyl)-5H-pyrrolo[2,3-b]pyrazine-7-carboxamide]	6.30 to 7.00
CC(C)S(=O)(=O)c1ccc(-c2cnc3[nH]cc(C(=O)NC4CCc5ccccc54)c3n2)cc1 (stereo not shown) [Compound I-53, N-indan-1-yl-2-(4-isopropylsulfonylphenyl)-5H-pyrrolo[2,3-b]pyrazine-7-carboxamide]	> 7.00
Cc1cccc(Cl)c1CNC(=O)c1c[nH]c2ncc(-c3ccc(S(=O)(=O)C(C)C)cc3)nc12 [Compound I-54, N-[(2-chloro-6-methyl-phenyl)methyl]-2-(4-isopropylsulfonylphenyl)-5H-pyrrolo[2,3-b]pyrazine-7-carboxamide]	> 7.00
Cc1cc(NC(=O)c2c[nH]c3ncc(-c4ccc(S(=O)(=O)C(C)C)cc4)nc23)[nH]n1 [Compound I-55, 2-(4-isopropylsulfonylphenyl)-N-(3-methyl-1H-pyrazol-5-yl)-5H-pyrrolo[2,3-b]pyrazine-7-carboxamide]	> 7.00
CC(C)S(=O)(=O)c1ccc(-c2cnc3[nH]cc(C(=O)N[C@@H](CO)c4ccccc4)c3n2)cc1 [Compound I-56, N-[(1R)-2-hydroxy-1-phenyl-ethyl]-2-(4-isopropylsulfonylphenyl)-5H-pyrrolo[2,3-b]pyrazine-7-carboxamide]	6.30 to 7.00
CC(C)S(=O)(=O)c1ccc(-c2cnc3[nH]cc(C(=O)NCc4ccc(N)cc4)c3n2)cc1 [Compound I-57, N-[(4-aminophenyl)methyl]-2-(4-isopropylsulfonylphenyl)-5H-pyrrolo[2,3-b]pyrazine-7-carboxamide]	> 7.00
COC[C@H](NC(=O)c1c[nH]c2ncc(-c3ccc(S(=O)(=O)C(C)C)cc3)nc12)c1ccccc1 [Compound I-58, 2-(4-isopropylsulfonylphenyl)-N-[(1R)-2-methoxy-1-phenyl-ethyl]-5H-pyrrolo[2,3-b]pyrazine-7-carboxamide]	5.30 to 6.30
CC(C)S(=O)(=O)c1ccc(-c2cnc3[nH]cc(C(=O)NCc4cccnc4)c3n2)cc1 [Compound I-59, 2-(4-isopropylsulfonylphenyl)-N-(3-pyridylmethyl)-5H-pyrrolo[2,3-b]pyrazine-7-carboxamide]	6.30 to 7.00
CC(C)S(=O)(=O)c1ccc(-c2cnc3[nH]cc(C(=O)NCc4ccncc4)c3n2)cc1 [Compound I-60, 2-(4-isopropylsulfonylphenyl)-N-(4-pyridylmethyl)-5H-pyrrolo[2,3-b]pyrazine-7-carboxamide]	6.30 to 7.00
CC(C)S(=O)(=O)c1ccc(-c2cnc3[nH]cc(C(=O)NCCc4ccccn4)c3n2)cc1 [Compound I-61, 2-(4-isopropylsulfonylphenyl)-N-[2-(2-pyridyl)ethyl]-5H-pyrrolo[2,3-b]pyrazine-7-carboxamide]	> 7.00
CC(C)S(=O)(=O)c1ccc(-c2cnc3[nH]cc(C(=O)NC[C@@H](O)c4ccccc4)c3n2)cc1 [Compound I-62, N-[(2S)-2-hydroxy-2-phenyl-ethyl]-2-(4-isopropylsulfonylphenyl)-5H-pyrrolo[2,3-b]pyrazine-7-carboxamide]	> 7.00
CC(C)S(=O)(=O)c1ccc(-c2cnc3[nH]cc(C(=O)NCC4CCCO4)c3n2)cc1 (stereo not shown) [Compound I-63, 2-(4-isopropylsulfonylphenyl)-N-(tetrahydrofuran-2-ylmethyl)-5H-pyrrolo[2,3-b]pyrazine-7-carboxamide]	> 7.00
Cc1ccc(NC(=O)c2c[nH]c3ncc(-c4ccc(S(=O)(=O)C(C)C)cc4)nc23)cc1F [Compound I-64, N-(3-fluoro-4-methyl-phenyl)-2-(4-isopropylsulfonylphenyl)-5H-pyrrolo[2,3-b]pyrazine-7-carboxamide]	> 7.00

Same assay, conditions: Ki(app); 5 nM full-length ATR, 10 μM ATP, 800 μM target peptide, 25° C.; given as numeric lower bound without unit; read-out: ATR Inhibition Ki

SMILES	pKi
CC(C)S(=O)(=O)c1ccc(-c2cnc3[nH]cc(C(=O)N4CCCCC4)c3n2)cc1 [Compound I-39, [2-(4-isopropylsulfonylphenyl)-5H-pyrrolo[2,3-b]pyrazin-7-yl]-(1-piperidyl)methanone]	< 6.60
CC(C)S(=O)(=O)c1ccc(-c2cnc3[nH]cc(C(=O)NCc4cccc(Cl)c4)c3n2)cc1 [Compound I-46, N-[(3-chlorophenyl)methyl]-2-(4-isopropylsulfonylphenyl)-5H-pyrrolo[2,3-b]pyrazine-7-carboxamide]	< 6.60
CC(C)S(=O)(=O)c1ccc(-c2cnc3[nH]cc(C(=O)Nc4ccc(C(N)=O)cc4)c3n2)cc1 [Compound I-47, N-(4-carbamoylphenyl)-2-(4-isopropylsulfonylphenyl)-5H-pyrrolo[2,3-b]pyrazine-7-carboxamide]	< 6.60
